# Paper PMC7731220, “Pharmacophore Modeling and 3D-QSAR Study of Indole and Isatin Derivatives as Antiamyloidogenic Agents Targeting Alzheimer’s Disease” (Molecules, 2020)
# Like-named read-outs stand apart in the source and are kept apart here.
# Columns and labels:
# Aβ40 [1] = biological target: T1, Aβ40 (Homo sapiens, UniProt P05067); test: Inhibition of Aβ40 self-aggregation (thioflavin T fluorescence, 2% HFIP); conditions: for inhibition at 100 µM: read-out: Aβ40 Aggregation Inhibition % at 100 μM
# Experimental: All the newly prepared compounds were tested in a routine in vitro assay of inhibition of Aβ40 self-aggregation [25].
# (§1) All assays were performed in 96-well plates (Greiner Bio-One, Kremsmünster, Austria) using an Infinite M1000 Pro plate reader (Tecan, Cernusco s.N., Italy). Inhibition data were obtained as mean ± SD (for single concentration points) or mean ± SEM from three independent experiments (for IC50s), using Prism (GraphPad Prism version 5.00 for Windows, GraphPad Software, San Diego, CA, USA).
# Assay of aggregation of Aβ40 (EzBiolab, Carmel, IN, USA) was performed as described [25], using 2% of 1,1,1,3,3,3-hexafluoro-2-propanol as aggregation enhancer and spectrofluorimetric detection of thioflavin T fluorescence as the probe of amyloid aggregation.
# [2] = biological target: T2, human recombinant monoamine oxidase B (Homo sapiens, UniProt P27338); test: Inhibition of monoamine oxidase B (kynuramine); assay type: biochemical; conditions: for inhibition at 10 µM: read-out: hMAO B % Inhib. at 10 μM; for IC50: read-out: hMAO B IC50
# T2 construct: purchased Sigma Aldrich; host or cells: baculovirus infected insect cells (microsomes)
# T2 sequence (P27338 1-520): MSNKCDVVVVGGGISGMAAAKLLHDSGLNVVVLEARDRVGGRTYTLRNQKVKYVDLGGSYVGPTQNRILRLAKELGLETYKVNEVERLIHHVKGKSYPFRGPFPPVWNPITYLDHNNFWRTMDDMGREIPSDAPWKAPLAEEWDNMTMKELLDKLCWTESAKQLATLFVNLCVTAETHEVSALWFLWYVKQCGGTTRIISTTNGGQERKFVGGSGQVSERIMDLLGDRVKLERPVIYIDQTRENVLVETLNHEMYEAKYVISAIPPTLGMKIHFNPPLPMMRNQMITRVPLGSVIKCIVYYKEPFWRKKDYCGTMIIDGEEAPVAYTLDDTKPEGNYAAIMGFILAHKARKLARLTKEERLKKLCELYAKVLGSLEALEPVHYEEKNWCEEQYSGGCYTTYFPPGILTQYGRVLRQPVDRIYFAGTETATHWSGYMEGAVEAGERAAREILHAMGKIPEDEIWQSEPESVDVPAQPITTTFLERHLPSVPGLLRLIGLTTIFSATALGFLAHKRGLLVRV
# Experimental: as §1
# (§2) Inhibition of human recombinant monoamine oxidases A (250 U/mg) and B (59 U/mg; microsomes from baculovirus infected insect cells; Sigma Aldrich) was determined as already described [48], measuring the fluorescence of 4-hydroxyquinoline produced by the oxidative deamination of substrate kynuramine.
# [3] = biological target: T3, human recombinant monoamine oxidase A (Homo sapiens, UniProt P21397); test: Inhibition of monoamine oxidase A (kynuramine); assay type: biochemical; conditions: for inhibition at 10 µM: read-out: hMAO A % Inhib. at 10 μM; for IC50: read-out: hMAO A IC50
# T3 construct: purchased Sigma Aldrich; host or cells: baculovirus infected insect cells (microsomes)
# T3 sequence (P21397 1-527): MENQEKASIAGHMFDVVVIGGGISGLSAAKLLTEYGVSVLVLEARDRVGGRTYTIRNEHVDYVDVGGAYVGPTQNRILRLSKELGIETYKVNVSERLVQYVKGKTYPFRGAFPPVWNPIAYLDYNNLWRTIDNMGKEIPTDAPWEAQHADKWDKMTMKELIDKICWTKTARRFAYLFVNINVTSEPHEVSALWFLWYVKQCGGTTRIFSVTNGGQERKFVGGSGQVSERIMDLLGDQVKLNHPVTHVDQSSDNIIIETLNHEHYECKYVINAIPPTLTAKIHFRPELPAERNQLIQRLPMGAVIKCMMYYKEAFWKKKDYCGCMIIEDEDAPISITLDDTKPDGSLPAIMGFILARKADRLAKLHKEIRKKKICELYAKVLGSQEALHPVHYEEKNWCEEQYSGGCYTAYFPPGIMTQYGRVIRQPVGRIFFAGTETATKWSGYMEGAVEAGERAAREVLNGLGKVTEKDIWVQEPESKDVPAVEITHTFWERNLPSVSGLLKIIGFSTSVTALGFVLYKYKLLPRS
# Experimental: as §1, §2
# human recombinant AChE = biological target: T4, human recombinant AChE (Homo sapiens, UniProt P22303); test: biochemical; conditions: for inhibition at 10 µM: read-out: hAChE % Inhib. at 10 μM; for IC50: read-out: hAChE IC50
# T4 construct: purchased Sigma Aldrich
# Experimental: as §1
# tau protein = biological target: T5, tau protein (Homo sapiens, UniProt P10636); test: Tau aggregation inhibition assay in bacterial cells (thioflavin S fluorescence); assay type: cell-based, Escherichia coli BL21 (DE3); conditions: for inhibition at 10 µM: cell-based assay
# T5 construct: inclusions bodies (IBs) formed by tau full-length protein in bacteria; expressed in transfected cells; host or cells: Escherichia coli BL21 (DE3), plasmids pTARA and pRKT42
# From the text: The deposition of aggregates of hyperphosphorylated tau protein constitutes the intracellular neurofibrillary tangles, a major histological evidence of AD. The role of tau hyperphosphorylation and aggregation in AD has established both of them as a target for therapeutic intervention, although only N,N,N′,N′-tetramethyl-10H-phenothiazine-3,7-diaminium (TRX0237, leucomethyl-thioninium), the reduced form of methylene blue dye, acting as an inhibitor of tau aggregation, has reached the clinical phase III [26]. In recent years, some of us developed an efficient cell-based assay of tau aggregation, a simple and inexpensive method that provides a straightforward assay to evaluate the putative anti-aggregation capacity of small molecules. This method relies on the use of bacteria overexpressing amyloid-prone proteins to monitor the amyloid aggregation, thus constituting a physiologically relevant model. In particular, it exploits amyloid properties of the inclusions bodies (IBs) formed by tau full-length protein in bacteria stained by thioflavin S (ThS), a specific amyloid dye, to address the bacterial amyloid aggregation and the effect of anti-amyloid compounds in this polymerization process.
# Escherichia coli competent cells BL21 (DE3) were transformed with pTARA containing the RNA-polymerase gen of T7 phage (T7RP) under the control of the promoter PBAD and pRKT42 vector encoding four repeats of tau protein in two inserts. Because of the addition of the initiation codon ATG in front of gene, the over-expressed protein contains an additional methionine residue at its N terminus. Tau anti-aggregating activities of the target compounds were assessed in E. coli cells, as previously described. M9 minimal medium (10 mL) containing 0.5% of glucose, 100 μg/mL of ampicillin and 12.5 μg/mL of chloramphenicol was inoculated with a colony of BL21 (DE3) cells bearing the plasmids. To fresh M9 minimal medium containing 0.5% of glucose, 50 μg/mL of ampicillin, 12.5 μg/mL of chloramphenicol, and 250 µM of ThS, the volume of overnight culture necessary to get a 1:500 dilution was added. The cultures were grown at 37 °C and 250 rpm overnight until cell density reached OD600 = 0.6. A volume of 980 μL of the cultures was transferred into 1.5 mL Eppendorf tubes that contained 10 μL of a solution of the target compound in DMSO and 10 μL of arabinose at 25%, leading to a final inhibitor concentration of 10 μM. The resulting cultures were grown at 37 °C and 1400 rpm with a Thermomixer (Eppendorf, Hamburg, Germany) overnight. The same amount of DMSO without the target compound was added to the sample as a negative control (maximal amount of tau), whereas non-induced samples (in the absence of arabinose) were prepared as positive controls (absence of tau), and to assess the potential intrinsic toxicity of the target compounds. In addition, the absorbance at 600 nm of these samples was assessed to confirm the correct bacterial growth, discarding potential intrinsic toxicity of compounds. To determine the IC50 values, the same protocol was followed but only modifying the initial concentration of compounds. In order to use different final concentrations of compound, we performed a dilutions banc from a stock solution of 100 mM in […].
# ThS fluorescence and absorbance were tracked using a DTX 800 plate reader Multimode Detector equipped with a Multimode Analysis Software (Beckman-Coulter, Indianapolis, IN, USA). Filters of 430/35 and 485/20 nm were used for the excitation and emission wavelengths, respectively. 535/25 nm filters were also used for the absorbance determination. It should be stressed that ThS fluorescence normalization was carried out considering as 100% the ThS fluorescence of the bacterial cells expressing tau in the absence of compounds and 0% the ThS fluorescence of the bacterial cells non-expressing tau.
# Aβ40 [4] = biological target: T1, Aβ40; conditions: cited from earlier work
# T1 sequence (P05067 672-711 limits assumed): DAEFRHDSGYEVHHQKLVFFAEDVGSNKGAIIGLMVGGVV
# T5 sequence (P10636 other isoform, or with tags, fused parts or gaps): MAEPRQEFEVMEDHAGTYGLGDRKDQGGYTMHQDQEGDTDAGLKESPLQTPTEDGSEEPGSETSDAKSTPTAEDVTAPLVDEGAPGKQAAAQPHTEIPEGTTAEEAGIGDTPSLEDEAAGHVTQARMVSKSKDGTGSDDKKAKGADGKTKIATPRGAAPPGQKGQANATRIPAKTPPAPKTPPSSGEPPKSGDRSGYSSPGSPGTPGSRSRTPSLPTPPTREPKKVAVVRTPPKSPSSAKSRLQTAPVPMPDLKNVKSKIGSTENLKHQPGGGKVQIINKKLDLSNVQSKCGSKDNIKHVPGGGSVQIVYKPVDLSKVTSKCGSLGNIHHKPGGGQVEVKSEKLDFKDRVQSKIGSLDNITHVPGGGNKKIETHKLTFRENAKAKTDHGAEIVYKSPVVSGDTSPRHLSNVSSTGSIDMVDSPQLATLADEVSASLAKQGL
# T4 sequence (P22303 32-614): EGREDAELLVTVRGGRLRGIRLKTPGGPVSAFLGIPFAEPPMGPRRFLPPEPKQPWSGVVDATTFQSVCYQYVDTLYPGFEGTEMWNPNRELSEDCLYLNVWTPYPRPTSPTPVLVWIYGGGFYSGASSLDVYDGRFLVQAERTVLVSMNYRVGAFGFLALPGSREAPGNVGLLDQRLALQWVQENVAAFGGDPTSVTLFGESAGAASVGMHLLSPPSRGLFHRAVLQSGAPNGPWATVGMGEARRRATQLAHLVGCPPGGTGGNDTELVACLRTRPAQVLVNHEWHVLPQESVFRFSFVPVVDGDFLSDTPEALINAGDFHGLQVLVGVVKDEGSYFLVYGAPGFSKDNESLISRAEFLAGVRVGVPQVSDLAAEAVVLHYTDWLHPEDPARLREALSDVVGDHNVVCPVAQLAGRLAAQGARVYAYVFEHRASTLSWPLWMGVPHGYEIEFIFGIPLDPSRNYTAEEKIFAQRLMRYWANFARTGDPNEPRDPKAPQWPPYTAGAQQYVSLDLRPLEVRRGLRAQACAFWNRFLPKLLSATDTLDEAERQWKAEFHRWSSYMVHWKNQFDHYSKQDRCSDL
Structure (SMILES),inhibition at 100 µM (Aβ40 [1]) [%],IC50 (Aβ40 [1]) [µM],inhibition at 10 µM [3] [%],inhibition at 10 µM (human recombinant AChE) [%],inhibition at 10 µM (tau protein) [%],IC50 [2] [µM],also measured
"CC(C)c1ccc(NN=C2NC(=O)c3ccccc32)cc1 [Compound 38, 3-(2-(4-Isopropylphenyl)hydrazineylidene)isoindolin-1-one]",49 ± 5,–,–,–,–,–,melting point: 186 to 187 °C
"CC(C)c1ccc(NN=C2C(=O)N(Cc3ccccc3)c3ccc(O)cc32)cc1 [Compound 19, 1-Benzyl-5-hydroxy-3-(2-(4-isopropylphenyl)hydrazineylidene)indolin-2-one]",–,1.6 ± 0.3,18 ± 4,31 ± 1,–,–,inhibition at 10 µM [2]: 46 ± 5%
COc1ccc2c(c1)/C(=N/Nc1cccc(OCc3ccccc3)c1)C(=O)N2 [Compound S35],–,–,–,–,–,–,IC50 (tau protein): 10 ± 2 µM; Aβ40 Inhibition % at 100 μM (Aβ40 [4]; Table 5): 44%
O=C1Nc2ccc([N+](=O)[O-])cc2/C1=N/Nc1ccccc1 [Compound S22],–,–,–,–,15 ± 3,–,"Aβ40 Inhibition % at 100 μM (Aβ40 [4]; Table 5, symbol): -^c (No inhibition at 100 μM concentration); % inhib. @ 100 µM (Aβ40 [4]; supplement, training set, 100 µM): -2±7%"
"O=C1C(c2c(O)nc3ccccc3c2O)=Nc2ccccc21 [Compound 43, 2-(2,4-Dihydroxyquinolin-3-yl)-3H-indol-3-one]",17 ± 3,–,–,–,–,–,melting point: 90 to 92 °C
COc1ccc2c(c1)/C(=N/Nc1ccc(OCc3ccccc3)cc1)C(=O)N2 [Compound S34],–,–,–,–,16 ± 2,–,Aβ40 Inhibition % at 100 μM (Aβ40 [4]; Table 5): 20%
COc1ccc2c(c1)/C(=N/Nc1ccccc1)C(=O)N2 [Compound S23],–,–,–,–,–,–,IC50 (tau protein): 7.7 ± 1 µM; Aβ40 Inhibition % at 100 μM (Aβ40 [4]; Table 5): 52%
"O=C1Nc2ccccc2C1=NNc1cccc(OCc2ccccc2)c1 [Compound 6, 3-(2-(3-(Benzyloxy)phenyl)hydrazineylidene)indolin-2-one]",45 ± 6,–,23 ± 5,–,14 ± 2,–,inhibition at 10 µM [2]: 22 ± 4%; IC50 (human recombinant AChE): 4.2 ± 0.8 µM
"N/N=C1\C(=O)Nc2ccc([N+](=O)[O-])cc21 [Compound 3, (Z)-3-Hydrazineylidene-5-nitroindolin-2-one]",11 ± 3,–,–,–,–,–,melting point: 217 to 219 °C
"COc1ccc2[nH]cc(C=NNc3ccc4ccccc4n3)c2c1 [Compound 35, 2-(2-((5-Methoxy-1H-indol-3-yl)methylene)hydrazineyl)quinoline]",–,12 ± 2,–,38 ± 2,–,6.5 ± 0.6,IC50 [3]: 3800 ± 300 nM
"O=C1Nc2ccccc2C1=NNc1cccc2ccccc12 [Compound 23, 3-(2-(Naphthalen-1-yl)hydrazono)indolin-2-one]",–,4.8 ± 0.5,–,40 ± 3,–,5.3 ± 0.3,IC50 [3]: 7100 ± 300 nM
"CN1C(=O)C(=NNc2ccc(OCc3ccccc3)cc2)c2ccccc21 [Compound 9, 3-(2-(4-(Benzyloxy)phenyl)hydrazineylidene)-1-methylindolin-2-one]",–,0.95 ± 0.04,15 ± 3,48 ± 2,20 ± 2,4 ± 0.4,–
O=C1Nc2ccccc2C1=NN=C1C(=O)Nc2ccccc21 [Compound 4],31 ± 3,–,–,–,17 ± 2,–,–
"CN1C(=O)C(=NNc2cccc(OCc3ccccc3)c2)c2ccccc21 [Compound 7, 3-(2-(3-(Benzyloxy)phenyl)hydrazineylidene)-1-methylindolin-2-one]",–,2 ± 0.3,29 ± 3,48 ± 3,19 ± 2,–,inhibition at 10 µM [2]: 41 ± 1%
"COc1ccc2c(c1)C(=O)C(=O)N2CN1CCOCC1 [Compound 13, 5-Methoxy-1-(morpholinomethyl)indoline-2,3-dione]",23 ± 5,–,7 ± 2,26 ± 1,–,4.4 ± 0.1,–
"O=C1Nc2ccccc2C1=NNc1ccc(OCc2ccccc2)cc1 [Compound 8, 3-(2-(4-(Benzyloxy)phenyl)hydrazineylidene)indolin-2-one]",69 ± 3,–,8 ± 3,–,35 ± 2,–,inhibition at 10 µM [2]: 36 ± 4%; IC50 (human recombinant AChE): 3.9 ± 0.5 µM
COc1ccc2c(c1)C(=O)C(=O)N2CCc1ccccc1 [Compound 11],–,15 ± 1,20 ± 4,47 ± 5,–,2.7 ± 0.3,–
"O=C1Nc2ccccc2C1=NNc1ccccc1 [Compound 5, isatin 3-phenylhydrazone]",–,22 ± 2,–,37 ± 1,–,3.6 ± 0.7,IC50 (tau protein): 4.6 ± 0.7 µM; selectivity for MAO A over MAO B ([3]; MAO A over MAO B): 7 fold; IC50 [3]: 520 ± 40 nM
"COc1ccc2c(c1)C(=NNc1ccc(C(C)C)cc1)C(=O)N2CCN(C)C [Compound 18, 1-(2-(Dimethylamino)ethyl)-3-(2-(4-isopropylphenyl)hydrazineylidene)-5-methoxyindolin-2-one]",–,1.3 ± 0.1,31 ± 4,23 ± 1,–,–,inhibition at 10 µM [2]: 47 ± 2%
"COc1ccc2[nH]cc(C=NNc3ccccn3)c2c1 [Compound 34, 5-Methoxy-3-((2-(pyridin-2-yl)hydrazineylidene)methyl)-1H-indole]",20 ± 2,–,–,–,–,–,–
"Clc1ccc(NN=Cc2c[nH]c3ccccc23)cc1 [Compound 32, 3-((2-(4-Chlorophenyl)hydrazono)methyl)-1H-indole]",–,8.4 ± 0.6,–,41 ± 5,–,0.23 ± 0.03,IC50 [3]: 340 ± 10 nM
